Patent US12668600B2 (Kumquat Biosciences Inc., priority 2023, dated 2026)

Legend:
Format in all cases: biochemical
KRAS WT = target: T1, KRAS WT (Homo sapiens, UniProt P01116); experiment: HTRF KRAS-SOS1 interaction assay, wildtype KRAS; settings: binned ≤2 μM / >2 μM, read-out: Inhibition of KRAS WT (IC50)
T1 construct: made in house; host or cells: E. coli, e.g. BL21 (DE3)
Outline: (§1)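 GST-tagged KRAS (WT or mutant) with anti-GST-Eu donor and His-hSOS1 with anti-6His-XL665 acceptor were combined in 5 mM HEPES pH 7.4, 150 mM NaCl, 1 mM DTT, 0.05% BSA, 0.0025% Igepal. After ~10 min, HTRF was read (ex 337, em 620/665 nm); IC50 from 665/620 ratio.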

KRAS G12D = target: T2, KRAS G12D (Homo sapiens, UniProt P01116, G12D); experiment: HTRF KRAS-SOS1 interaction assay, KRAS G12D; settings: binned ≤2 μM / >2 μM, read-out: Inhibition of KRAS G12D (IC50)
T2 construct: made in house; host or cells: E. coli, e.g. BL21 (DE3)
T2 sequence (P01116 1-188 isoform P01116-2 G12D): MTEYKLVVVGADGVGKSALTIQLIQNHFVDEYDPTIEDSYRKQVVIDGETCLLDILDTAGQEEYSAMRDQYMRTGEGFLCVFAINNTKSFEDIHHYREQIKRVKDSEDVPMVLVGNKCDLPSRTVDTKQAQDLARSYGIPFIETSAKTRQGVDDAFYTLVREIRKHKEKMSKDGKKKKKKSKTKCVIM
Outline: as §1

KRAS G12S = target: T3, KRAS G12S (Homo sapiens, UniProt P01116, G12S); experiment: HTRF KRAS-SOS1 interaction assay, KRAS G12S; settings: binned ≤2 μM / >2 μM, read-out: Inhibition of KRAS G12S (IC50)
T3 construct: made in house; host or cells: E. coli, e.g. BL21 (DE3)
T3 sequence (P01116 1-188 isoform P01116-2 G12S): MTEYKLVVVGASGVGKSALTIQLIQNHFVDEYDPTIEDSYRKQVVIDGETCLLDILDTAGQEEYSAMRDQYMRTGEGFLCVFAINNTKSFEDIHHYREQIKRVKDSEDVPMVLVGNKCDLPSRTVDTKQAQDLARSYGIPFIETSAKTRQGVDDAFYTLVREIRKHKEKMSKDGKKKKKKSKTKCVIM
Outline: as §1

KRAS G12V = target: T4, KRAS G12V (Homo sapiens, UniProt P01116, G12V); experiment: HTRF KRAS-SOS1 interaction assay, KRAS G12V; settings: binned ≤2 μM / >2 μM, read-out: Inhibition of KRAS G12V (IC50)
T4 construct: made in house; host or cells: E. coli, e.g. BL21 (DE3)
T4 sequence (P01116 1-188 isoform P01116-2 G12V): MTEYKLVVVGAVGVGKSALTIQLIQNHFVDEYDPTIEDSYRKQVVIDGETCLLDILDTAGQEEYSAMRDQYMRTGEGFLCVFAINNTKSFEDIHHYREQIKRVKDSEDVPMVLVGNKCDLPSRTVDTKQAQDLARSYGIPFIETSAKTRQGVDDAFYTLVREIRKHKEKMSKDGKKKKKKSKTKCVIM
Outline: as §1

T1 sequence (P01116 1-188 isoform P01116-2): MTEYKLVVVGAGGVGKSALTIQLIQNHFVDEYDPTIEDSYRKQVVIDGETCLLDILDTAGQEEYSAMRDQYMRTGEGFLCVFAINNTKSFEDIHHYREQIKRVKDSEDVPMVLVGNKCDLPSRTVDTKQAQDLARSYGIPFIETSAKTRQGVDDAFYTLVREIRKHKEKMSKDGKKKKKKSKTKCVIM

| IC50 (KRAS WT) [nM] | IC50 (KRAS G12D) [nM] | IC50 (KRAS G12S) [nM] | IC50 (KRAS G12V) [nM] | SMILES |
| --- | --- | --- | --- | --- |
| ≤ 2000 | ≤ 2000 | ≤ 2000 | ≤ 2000 | CCON=C(C)CC[C@H](c1cccnc1N)N1CCOc2c(C(F)(F)F)c(-c3ccc(F)c4sc(N)c(C#N)c34)c(F)c3nc(OC[C@@]45CCCN4C[C@H](F)C5)nc1c23 (mixture of isomers) [Compound 789, 2-amino-4-(4-((R)-1-(2-aminopyridin-3-yl)-4-(ethoxyimino)pentyl)-10-fluoro-2-(((2R,7aS)-2-fluorotetrahydro-1H-pyrrolizin-7a(5H)-yl)methoxy)-8-(trifluoromethyl)-5,6-dihydro-4H-[1,4]oxazepino[5,6,7-de]quinazolin-9-yl)-7-fluorobenzo[b]thiophene-3-carbonitrile] |
| ≤ 2000 | ≤ 2000 | ≤ 2000 | ≤ 2000 | CCN(CC)CCC[C@H](c1cccnc1N)N1CCOc2c(C(F)(F)F)c(-c3ccc(F)c4sc(NC)c(C#N)c34)c(F)c3nc(OC[C@@]45CCCN4C[C@H](F)C5)nc1c23 (single isomer, unassigned) [Compound 832] |
| ≤ 2000 | ≤ 2000 | ≤ 2000 | ≤ 2000 | CO[C@H]1CCN(C)[C@@H]1[C@H](C)Oc1nc2c3c(c(C(F)(F)F)c(-c4ccc(F)c5sc(N)c(C#N)c45)c(F)c3n1)OCCN2[C@H](C)c1cccnc1N [Compound 665, 2-amino-4-(4-((R)-1-(2-aminopyridin-3-yl)ethyl)-10-fluoro-2-((S)-1-((2R,3S)-3-methoxy-1-methylpyrrolidin-2-yl)ethoxy)-8-(trifluoromethyl)-5,6-dihydro-4H-[1,4]oxazepino[5,6,7-de]quinazolin-9-yl)-7-fluorobenzo[b]thiophene-3-carbonitrile] |
| ≤ 2000 | ≤ 2000 | ≤ 2000 | ≤ 2000 | C[C@H](c1cccnc1N)N1CCOc2c(C(F)(F)F)c(-c3ccc(F)c4sc(N)c(C#N)c34)c(F)c3nc(OC[C@@]45CCCN4C[C@@]4(CC4(F)F)C5)nc1c23 (single isomer, unassigned) [Compound 725] |
| ≤ 2000 | ≤ 2000 | ≤ 2000 | ≤ 2000 | CON=C1CN2CCC[C@@]2(COc2nc3c4c(c(Cl)c(-c5ccc(F)c6sc(N)c(C#N)c56)c(F)c4n2)OCCN3[C@H](C)c2cccnc2N)C1 (mixture of isomers) [Compound 653, 2-amino-4-(4-((R)-1-(2-aminopyridin-3-yl)ethyl)-8-chloro-10-fluoro-2-(((S)-2-(methoxyimino)tetrahydro-1H-pyrrolizin-7a(5H)-yl)methoxy)-5,6-dihydro-4H-[1,4]oxazepino[5,6,7-de]quinazolin-9-yl)-7-fluorobenzo[b]thiophene-3-carbonitrile] |
| ≤ 2000 | ≤ 2000 | ≤ 2000 | ≤ 2000 | N#Cc1c(N)sc2c(F)ccc(-c3c(C(F)(F)F)c4c5c(nc(OC[C@@]67CCCN6C[C@@]6(CC6(F)F)C7)nc5c3F)N([C@@H](c3cccnc3N)C(F)F)CCO4)c12 (single isomer, unassigned) [Compound 843] |
| > 2000 | > 2000 | > 2000 | > 2000 | C[C@H](c1cccnc1N)N1CCOc2c(Cl)c(-c3ccc(F)c4sc(N)c(C#N)c34)c(F)c3nc(OCC45CCCC4CCC5)nc1c23 (single isomer, unassigned) [Compound 674] |
| ≤ 2000 | ≤ 2000 | ≤ 2000 | ≤ 2000 | N#Cc1c(N)sc2c(F)ccc(-c3c(Cl)c4c5c(nc(OC[C@@]67CCCN6C[C@H](F)C7)nc5c3F)N(C(/C=C/C(F)(F)F)c3cccnc3N)CCO4)c12 (mixture of isomers) [Compound 828, 2-amino-4-(4-((E)-1-(2-aminopyridin-3-yl)-4,4,4-trifluorobut-2-en-1-yl)-8-chloro-10-fluoro-2-(((2R,7aS)-2-fluorotetrahydro-1H-pyrrolizin-7a(5H)-yl)methoxy)-5,6-dihydro-4H-[1,4]oxazepino[5,6,7-de]quinazolin-9-yl)-7-fluorobenzo[b]thiophene-3-carbonitrile] |
| > 2000 | > 2000 | > 2000 | > 2000 | C[C@H](c1cc(Cl)cnc1N)N1CCOc2c(C(F)(F)F)c(-c3ccc(F)c4sc(N)c(C#N)c34)c(F)c3nc(OC[C@@]45CCCN4C[C@H](F)C5)nc1c23 (single isomer, unassigned) [Compound 702] |
| ≤ 2000 | ≤ 2000 | ≤ 2000 | ≤ 2000 | CC[S+]([O-])[C@H]1CN2CCC[C@@]2(COc2nc3c4c(c(Cl)c(-c5ccc(F)c6sc(N)c(C#N)c56)c(F)c4n2)OCCN3[C@H](C)c2cccnc2N)C1 (mixture of isomers) [Compound 906, 2-amino-4-(4-((R)-1-(2-aminopyridin-3-yl)ethyl)-8-chloro-2-(((2R,7aS)-2-(ethylsulfinyl)tetrahydro-1H-pyrrolizin-7a(5H)-yl)methoxy)-10-fluoro-5,6-dihydro-4H-[1,4]oxazepino[5,6,7-de]quinazolin-9-yl)-7-fluorobenzo[b]thiophene-3-carbonitrile] |
| ≤ 2000 | ≤ 2000 | ≤ 2000 | ≤ 2000 | C[C@H](c1cccnc1N)N1CCOc2c(C(F)(F)F)c(-c3ccc(F)c4sc(N)c(C#N)c34)c(F)c3nc(OC[C@@]45CCCN4CC(CN(C)C)C5)nc1c23 (mixture of isomers) [Compound 721, 2-amino-4-(4-((R)-1-(2-aminopyridin-3-yl)ethyl)-2-(((7aS)-2-((dimethylamino)methyl)tetrahydro-1H-pyrrolizin-7a(5H)-yl)methoxy)-10-fluoro-8-(trifluoromethyl)-5,6-dihydro-4H-[1,4]oxazepino[5,6,7-de]quinazolin-9-yl)-7-fluorobenzo[b]thiophene-3-carbonitrile] |
| ≤ 2000 | ≤ 2000 | ≤ 2000 | ≤ 2000 | C[C@H](c1cccnc1Cl)N1CCOc2c(C(F)(F)F)c(-c3ccc(F)c4sc(N)c(C#N)c34)c(F)c3nc(OC[C@@]45CCCN4C[C@H](F)C5)nc1c23 [Compound 730, 2-amino-4-(4-((R)-1-(2-chloropyridin-3-yl)ethyl)-10-fluoro-2-(((2R,7aS)-2-fluorotetrahydro-1H-pyrrolizin-7a(5H)-yl)methoxy)-8-(trifluoromethyl)-5,6-dihydro-4H-[1,4]oxazepino[5,6,7-de]quinazolin-9-yl)-7-fluorobenzo[b]thiophene-3-carbonitrile] |
| > 2000 | > 2000 | > 2000 | > 2000 | N#Cc1c(N)sc2c(F)ccc(-c3c(C(F)(F)F)c4c5c(nc(OC[C@@]67CCCN6C[C@@]6(CC6(F)F)C7)nc5c3F)N([C@@H](c3cccnc3N)C(F)F)CCO4)c12 (single isomer, unassigned) [Compound 897] |
| ≤ 2000 | ≤ 2000 | ≤ 2000 | ≤ 2000 | C[C@H](c1cccnc1N)N1CCOc2c(Cl)c(-c3ccc(F)c4sc(N)c(C#N)c34)c(F)c3nc(OC[C@]45CCCN4[C@H](CN)CC5)nc1c23 [Compound 915, 2-amino-4-(2-(((3S,7aR)-3-(aminomethyl)tetrahydro-1H-pyrrolizin-7a(5H)-yl)methoxy)-4-((R)-1-(2-aminopyridin-3-yl)ethyl)-8-chloro-10-fluoro-5,6-dihydro-4H-[1,4]oxazepino[5,6,7-de]quinazolin-9-yl)-7-fluorobenzo[b]thiophene-3-carbonitrile] |
